# According to publication PMC10674446, “Synthesis and Structural Characterization of Novel Dimers of Dipyridothiazine as Promising Antiproliferative Agents” (Molecules, 2023):
# Where two headings read alike, the source gives them in different places.
# Legend:
# normal L6 rat myoblasts = test: MTT cell viability assay, normal L6 cells; type: cell-based; conditions: mean ± SD, n = 3, read-out: Anticancer Activity IC50, L6
# Protocol: (§1) MCF7, SW480 and normal L6 muscle cells were bought from the ATCC company, USA [34]. MCF7 and SW480 adenocarcinoma cell lines were cultured, respectively, using Dulbecco’s Modified Eagle Medium (DMEM with 4.5 g/L glucose; HIMEDIA, Mumbai, India) supplemented with 100 U/mL penicillin, 100 µg/mL of streptomycin and 10% fetal bovine serum (FBS; Cat No. FBSEU500; Tico Europe, Amstelveen, The Netherlands) under standard conditions until the desired confluency was reached. Once the desired cell confluency of 70–80% was observed, the cells were sub-cultured through trypsinization, and the cell count was calculated prior to seeding in the 96-well microplate. Similarly, L6 rat myoblasts were cultured accordingly as normal cell lines to compare against MCF7 and SW480 cell lines during the MTT cell viability assay.
# (§2) Cells were seeded in a 96-well microplate at a density of 1 × 10^4 cells per well and were allowed to adhere to the wells overnight. Subsequently, the cells were treated with varying concentrations of 12 compounds (1a,b,c–4a,b,c) along with doxorubicin as the positive control. The cells were exposed to the tested substances at concentrations ranging from 50, 25, 10, 5 and 1 μM. The treatment was conducted over three periods of 24 h, 48 h and 72 h, respectively. After the treatment period, thiazolyl blue tetrazolium bromide (MTT) solution was added to each well at a concentration of 0.5 mg/mL and incubated for 3 h in a 37 °C incubator supplemented with 5% CO2. Lastly, the spent MTT medium was removed and DMSO was added to the wells, where the purple formazan crystals were solubilized, and the intensity of the purple hue was spectrophotometrically measured at 570 nm.
# (§3) All values were represented as means ± standard deviations (n = 3). The data were statistically analyzed using GraphPad Prism 10.1.0, where the IC50 values of each compound treated on different cell lines at different time points were obtained by extrapolating the logarithmic dose–response curve. The IC50 values were further subjected to one-way ANOVA analysis along with the post hoc test to determine the statistical significance between the treatment groups and the negative control (untreated cells).
# MCF7 breast cancer = test: MTT cell viability assay, MCF7; type: cell-based, human; conditions: for Selectivity Index (SI), MCF-7: SI = IC50 L6 / IC50 MCF-7; for IC50: mean ± SD, n = 3, read-out: Anticancer Activity IC50, MCF-7
# Protocol: as §1
# (§4) Cells were seeded in a 96-well microplate at a density of 1 × 10^4 cells per well and were allowed to adhere to the wells overnight. […] The cells were exposed to the tested substances at concentrations ranging from 50, 25, 10, 5 and 1 μM. The treatment was conducted over three periods of 24 h, 48 h and 72 h, respectively. […] Lastly, the spent MTT medium was removed and DMSO was added to the wells, where the purple formazan crystals were solubilized, and the intensity of the purple hue was spectrophotometrically measured at 570 nm.
# (§5) All values were represented as means ± standard deviations (n = 3). […] The IC50 values were further subjected to one-way ANOVA analysis along with the post hoc test to determine the statistical significance between the treatment groups and the negative control (untreated cells).
# SW480 colon cancer = test: MTT cell viability assay, SW480; type: cell-based, human; conditions: for IC50: mean ± SD, n = 3, read-out: Anticancer Activity IC50, SW480; for Selectivity Index (SI), SW480: SI = IC50 L6 / IC50 SW480
# Protocol: as §1, §4, §5
# [1] = system: MCF7 and SW480 cancer cells; test: MTT cell viability assay, both cancer cell lines; type: cell-based, human; conditions: breast cancer cell line MCF7 versus colon cancer cell line SW480
# Protocol: as §1, §2, §3
# [2] = 72 h treatment period, NA = IC50 beyond the tested concentration range (1-50 µM)
# [3] = Rattus norvegicus, Myoblast, 24 h treatment period
# [4] = Rattus norvegicus, Myoblast, 48 h treatment period
# [5] = Rattus norvegicus, Myoblast, 72 h treatment period
# [6] = Homo sapiens, MCF7, 24 h treatment period
# [7] = Homo sapiens, MCF7, 48 h treatment period
# [8] = Homo sapiens, MCF7, 72 h treatment period, NA = IC50 beyond the tested concentration range (1-50 µM)
# [9] = Homo sapiens, SW480, 24 h treatment period
# [10] = Homo sapiens, SW480, 48 h treatment period
# [11] = Homo sapiens, SW480, 72 h treatment period
compound,measurement,setting,value
"1,4-bis((dipyrido[2,3-b:2′,3′-e][1,4]thiazin-10-yl)methyl)benzene [3b]",IC50,normal L6 rat myoblasts; 24 h treatment period,20.8 ± 0.28 µM
same,IC50,normal L6 rat myoblasts; 48 h treatment period,22.7 ± 0.29 µM
same,IC50,normal L6 rat myoblasts; 72 h treatment period,22.15 ± 0.22 µM
same,"Selectivity Index (SI), MCF-7",MCF7 breast cancer; 24 h,1.09
same,IC50,MCF7 breast cancer; 24 h treatment period,19 ± 1.23 µM
same,"Selectivity Index (SI), MCF-7",MCF7 breast cancer; 48 h,0.81
same,IC50,MCF7 breast cancer; 48 h treatment period,28 ± 0.65 µM
same,"Selectivity Index (SI), MCF-7",MCF7 breast cancer; 72 h,1.17
same,IC50,MCF7 breast cancer; [2],18.89 ± 0.15 µM
same,IC50,SW480 colon cancer; 24 h treatment period,24.5 ± 0.26 µM
same,"Selectivity Index (SI), SW480",SW480 colon cancer; 48 h,1.07
same,IC50,SW480 colon cancer; 48 h treatment period,21.19 ± 0.14 µM
same,"Selectivity Index (SI), SW480",SW480 colon cancer; 72 h,1.15
same,IC50,SW480 colon cancer; 72 h treatment period,19.3 ± 0.12 µM
"1,4-bis((dipyrido[2,3-b:2′,3′-e][1,4]thiazin-10-yl)methyl)benzene [4b]",IC50,normal L6 rat myoblasts; 24 h treatment period,36.7 ± 1.03 µM
same,IC50,normal L6 rat myoblasts; 48 h treatment period,30.8 ± 0.93 µM
same,IC50,normal L6 rat myoblasts; 72 h treatment period,11.6 ± 0.47 µM
same,"Selectivity Index (SI), MCF-7",MCF7 breast cancer; 24 h,1.23
same,IC50,MCF7 breast cancer; 24 h treatment period,29.7 ± 1.33 µM
same,"Selectivity Index (SI), MCF-7",MCF7 breast cancer; 48 h,1.27
same,IC50,MCF7 breast cancer; 48 h treatment period,24.24 ± 0.17 µM
same,"Selectivity Index (SI), MCF-7",MCF7 breast cancer; 72 h,0.45
same,IC50,MCF7 breast cancer; [2],25.6 ± 0.35 µM
same,"Selectivity Index (SI), SW480",SW480 colon cancer; 24 h,1.21
same,IC50,SW480 colon cancer; 24 h treatment period,29.1 ± 0.37 µM
same,"Selectivity Index (SI), SW480",SW480 colon cancer; 48 h,1.16
same,IC50,SW480 colon cancer; 48 h treatment period,26.4 ± 0.74 µM
same,"Selectivity Index (SI), SW480",SW480 colon cancer; 72 h,0.54
same,IC50,SW480 colon cancer; 72 h treatment period,21.41 ± 0.21 µM
"c1ccc(CN2c3cccnc3Sc3cccnc32)c(CN2c3cccnc3Sc3cccnc32)c1 [1a, 1,2-bis((dipyrido[2,3-b:2′,3′-e][1,4]thiazin-10-yl)methyl)benzene]",IC50,normal L6 rat myoblasts; [3],20.6 ± 0.29 µM
same,IC50,normal L6 rat myoblasts; [4],19.1 ± 1.08 µM
same,IC50,normal L6 rat myoblasts; [5],16.1 ± 0.42 µM
same,"Selectivity Index (SI), MCF-7",MCF7 breast cancer; 24 h,2.62
same,"Selectivity Index (SI), MCF-7",MCF7 breast cancer; 48 h,2.69
same,"Selectivity Index (SI), MCF-7",MCF7 breast cancer; 72 h,2.15
same,IC50,MCF7 breast cancer; [6],7.85 ± 1.67 µM
same,IC50,MCF7 breast cancer; [7],7.12 ± 0.42 µM
same,IC50,MCF7 breast cancer; [8],7.49 ± 1.13 µM
same,"Selectivity Index (SI), SW480",SW480 colon cancer; 24 h,0.94
same,"Selectivity Index (SI), SW480",SW480 colon cancer; 48 h,0.93
same,"Selectivity Index (SI), SW480",SW480 colon cancer; 72 h,0.92
same,IC50,SW480 colon cancer; [9],21.8 ± 0.36 µM
same,IC50,SW480 colon cancer; [10],20.5 ± 0.79 µM
same,IC50,SW480 colon cancer; [11],17.5 ± 0.5 µM
same,melting point,,265 to 267 °C
same,cytotoxicity towards MCF7 compared with SW480 (in words),[1],higher cytotoxicity
"c1cnc2c(c1)Sc1ncccc1N2Cc1ccc(CN2c3cccnc3Sc3cccnc32)cc1 [1b, 1,4-bis((dipyrido[2,3-b:2′,3′-e][1,4]thiazin-10-yl)methyl)benzene]",IC50,normal L6 rat myoblasts; [3],16 ± 0.36 µM
same,IC50,normal L6 rat myoblasts; [4],1.92 ± 1.39 µM
same,IC50,normal L6 rat myoblasts; [5],11.7 ± 0.59 µM
same,"Selectivity Index (SI), MCF-7",MCF7 breast cancer; 24 h,1.38
same,"Selectivity Index (SI), MCF-7",MCF7 breast cancer; 48 h,0.12
same,"Selectivity Index (SI), MCF-7",MCF7 breast cancer; 72 h,1.22
same,IC50,MCF7 breast cancer; [6],11.6 ± 0.15 µM
same,IC50,MCF7 breast cancer; [7],15.9 ± 0.83 µM
same,IC50,MCF7 breast cancer; [8],9.6 ± 0.46 µM
same,"Selectivity Index (SI), SW480",SW480 colon cancer; 24 h,0.55
same,"Selectivity Index (SI), SW480",SW480 colon cancer; 48 h,0.1
same,"Selectivity Index (SI), SW480",SW480 colon cancer; 72 h,0.59
same,IC50,SW480 colon cancer; [9],28.7 ± 1.28 µM
same,IC50,SW480 colon cancer; [10],20.7 ± 1.22 µM
same,IC50,SW480 colon cancer; [11],19.8 ± 1.21 µM
same,cytotoxicity towards MCF7 compared with SW480 (in words),[1],higher cytotoxicity
